# Experimental data: patent US8481551B2, “Gyrase and topoisomerase IV inhibitors” (Vertex Pharmaceuticals Incorporated, priority 2011, dated 2013)
# Where a name gives a salt, the structure may show the parent alone.
# Tests used:
# [1] = test system: Bacteroides fragilis; assay: Gyrase MIC, agar dilution method (Protocol 3); assay type: cell-based; settings: 25 isolates tested
# [2] = test system: M. tuberculosis; assay: MIC determination procedure for Mycobacterium species (Protocol 4); assay type: cell-based
# [3] = test system: S. aureus (ATCC 29213); assay: Neutropenic rat thigh infection model; assay type: in vivo, Sprague Dawley rats
# Text: Animals: Specific-pathogen-free, male Sprague Dawley rats weighing between 76 to 100 grams were obtained from Charles River Laboratories, Inc. (Wilmington, Mass.) and utilized in this experiment. Animals were allowed to acclimate for a minimum of seven (7) days before study commencement. Bacteria: The methicillin-sensitive Staphylococcus aureus(MSSA) ATCC strain 29213 was utilized for in vivo experimentation. The test isolate was subcultured twice onto standard microbiological agar media (trypticase soy agar with 5% sheep blood). The second transfer was made less than 24 hours before use in the preparation of the thigh infection model inoculum. Neutropenic Rat Thigh Infection Model: To induce neutropenia, rats were treated with the immunosuppressant cyclophosphamide at 150 mg/kg, administered in 1 ml by intraperitoneal (IP) injection, three day prior to infection. Rats were infected by an intramuscular (IM) 0.2 ml injection into both rear thighs with a 10^7 cfu/ml methicillin-sensitive Staphylococcus aureus 29213 suspension in normal saline. After increasing amounts of time (2-26 hours) the two rear thighs of each animal were harvested, rinsed with sterile saline, weighed, then placed in 50 ml sterile normal saline and placed on wet ice until homogenization. Approximately one-half of the total homogenized sample volume was passed through a large pore filter (to remove cartilage and large clumped pieces of tissue), diluted in saline and cultured onto agar media plates (trypticase soy agar with 5% sheep blood). All culture plates were incubated at approximately 37° C. for 18-24 hours. Colony-forming units were enumerated (in cfu/ml of homogenate) and the median for each treatment and control group was calculated. […] The median cfu/ml per group was compared to the initial bacterial density at 2 hours (Early Control) or that of the time-matched vehicle control group (Late Control; LC) group harvested simultaneously. […] After 2 hours a single group of rats (Early Control (EC) was euthanized and the thighs harvested, homogenized and plated to quantitate S. aureus burdens. The additional infected rats were treated by oral gavage with Vehicle at 10 ml/kg (20% Cavitron/1% HPMCAS-MG; […] The 8-hour treatment groups received a single treatment (QD) and were euthanized and thighs collected for cfu determination 8 hours post treatment (QD), while the 24-hour treatment groups received 2 doses 12 hours apart (q12 h) and were euthanized and thighs collected 24 hours post treatment. […] After 2 hours a single group of rats (Early Control (EC)) was euthanized and the thighs harvested, homogenized and plated to quantitate S. aureus burdens. The additional infected rats were treated by oral gavage with Vehicle at 10 ml/kg (10% Vitamin E/TPGS; […] The 8-hour treatment groups received a single treatment (QD) and were euthanized and thighs collected for cfu determination 8 hours post treatment (QD), while the 24 hour treatment groups received 2 doses 12 hours apart (q12 h) and were euthanized and thighs collected 24 hours post treatment.
# [4] = test system: M. kansasii; assay: MIC determination procedure for Mycobacterium species (Protocol 4); assay type: cell-based
# [5] = test system: M. abscessus; assay: as above; assay type: cell-based; settings: Mycobacteroides abscessus
# [6] = target: S. aureus TopoIV enzyme (Staphylococcus aureus, UniProt P0C1S7); assay: DNA Topo IV ATPase assay; assay type: biochemical; settings: 64 nM enzyme, 30° C., Morrison Equation fit
# [7] = Conversion of Compound W to Compound 23 in liver S9 fractions; assay type: in vitro ADME; settings: hepatic and intestinal S9 fractions from rats, dogs, monkeys and humans
# Method: The incubations were done for 0, 5, 10, 15, 30, 45 or 60 minutes. The formation of Compound 23 was quantified by LC/MS-MS and data were fitted to the Michaelis Menten equation.
# [8] = target: S. aureus DNA gyrase (Staphylococcus aureus, UniProt P0A0K8); assay: DNA gyrase ATPase assay; settings: 90 nM enzyme, 0.9 mM ATP, 30° C.
# [9] = 8 hours after the first dose, 10 mg/kg oral
# [10] = 8 hours after the first dose, 60 mg/kg oral
# [11] = 8 hours after the first dose, 100 mg/kg oral
# [12] = Table 9: 10 mg/kg oral, QD, 8 Hours
# [13] = Table 9: 10 mg/kg oral, q12 h, 24 Hours
# [14] = Table 9: 60 mg/kg oral, QD, 8 Hours
# [15] = Table 9: 60 mg/kg oral, q12 h, 24 Hours
# [16] = Table 9: 100 mg/kg oral, QD, 8 Hours
# [17] = Table 9: 100 mg/kg oral, q12 h, 24 Hours
# [18] = Table 8: 10 mg/kg oral, QD, 8 Hours
# [19] = Table 8: 10 mg/kg oral, q12 h, 24 Hours
# [20] = Table 8: 30 mg/kg oral, QD, 8 Hours
# [21] = Table 8: 30 mg/kg oral, q12 h, 24 Hours
# [22] = Table 8: 60 mg/kg oral, QD, 8 Hours
# [23] = Table 8: 60 mg/kg oral, q12 h, 24 Hours
# Sequence of S. aureus TopoIV enzyme (P0C1S7 whole entry): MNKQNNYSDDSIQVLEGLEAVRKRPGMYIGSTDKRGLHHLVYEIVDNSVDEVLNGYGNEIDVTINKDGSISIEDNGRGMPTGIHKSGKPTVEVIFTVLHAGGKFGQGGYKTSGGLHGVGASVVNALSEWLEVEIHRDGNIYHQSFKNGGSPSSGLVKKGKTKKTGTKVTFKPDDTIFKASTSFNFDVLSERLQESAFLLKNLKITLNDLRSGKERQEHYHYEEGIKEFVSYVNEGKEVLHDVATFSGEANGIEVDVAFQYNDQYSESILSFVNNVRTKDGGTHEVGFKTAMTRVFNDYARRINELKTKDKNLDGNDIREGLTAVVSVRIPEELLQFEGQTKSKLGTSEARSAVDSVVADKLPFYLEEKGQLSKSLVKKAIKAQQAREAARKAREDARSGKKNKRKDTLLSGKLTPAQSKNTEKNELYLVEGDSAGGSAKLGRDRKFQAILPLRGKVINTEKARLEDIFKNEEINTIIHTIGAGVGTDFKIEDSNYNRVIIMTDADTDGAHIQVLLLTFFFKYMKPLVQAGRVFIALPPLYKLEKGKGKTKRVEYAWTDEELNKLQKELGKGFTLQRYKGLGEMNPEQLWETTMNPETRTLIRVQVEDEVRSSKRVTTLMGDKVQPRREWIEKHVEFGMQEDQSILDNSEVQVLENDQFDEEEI
# Sequence of S. aureus TopoIV enzyme (P0C1U9 whole entry partner): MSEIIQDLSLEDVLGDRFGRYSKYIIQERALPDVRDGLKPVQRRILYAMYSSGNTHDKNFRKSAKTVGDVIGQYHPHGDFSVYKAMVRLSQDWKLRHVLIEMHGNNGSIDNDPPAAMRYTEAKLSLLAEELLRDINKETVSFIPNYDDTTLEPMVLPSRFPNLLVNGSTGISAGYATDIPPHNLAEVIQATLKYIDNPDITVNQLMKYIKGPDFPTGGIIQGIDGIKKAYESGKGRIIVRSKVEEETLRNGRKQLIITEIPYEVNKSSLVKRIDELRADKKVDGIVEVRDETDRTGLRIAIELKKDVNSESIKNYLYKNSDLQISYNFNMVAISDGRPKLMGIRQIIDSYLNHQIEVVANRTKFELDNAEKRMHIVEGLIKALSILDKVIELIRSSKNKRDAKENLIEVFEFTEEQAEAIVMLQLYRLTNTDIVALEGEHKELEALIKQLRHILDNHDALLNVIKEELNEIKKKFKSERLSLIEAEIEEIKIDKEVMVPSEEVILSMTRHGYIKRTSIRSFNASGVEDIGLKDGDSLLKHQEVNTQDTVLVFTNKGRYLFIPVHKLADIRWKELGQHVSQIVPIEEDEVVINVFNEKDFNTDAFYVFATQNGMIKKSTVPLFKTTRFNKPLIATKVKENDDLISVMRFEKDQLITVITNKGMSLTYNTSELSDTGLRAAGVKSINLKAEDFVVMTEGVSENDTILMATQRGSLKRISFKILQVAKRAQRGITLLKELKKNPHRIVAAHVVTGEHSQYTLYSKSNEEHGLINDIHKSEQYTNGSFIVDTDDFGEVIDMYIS
# Sequence of S. aureus DNA gyrase (P20831 whole entry): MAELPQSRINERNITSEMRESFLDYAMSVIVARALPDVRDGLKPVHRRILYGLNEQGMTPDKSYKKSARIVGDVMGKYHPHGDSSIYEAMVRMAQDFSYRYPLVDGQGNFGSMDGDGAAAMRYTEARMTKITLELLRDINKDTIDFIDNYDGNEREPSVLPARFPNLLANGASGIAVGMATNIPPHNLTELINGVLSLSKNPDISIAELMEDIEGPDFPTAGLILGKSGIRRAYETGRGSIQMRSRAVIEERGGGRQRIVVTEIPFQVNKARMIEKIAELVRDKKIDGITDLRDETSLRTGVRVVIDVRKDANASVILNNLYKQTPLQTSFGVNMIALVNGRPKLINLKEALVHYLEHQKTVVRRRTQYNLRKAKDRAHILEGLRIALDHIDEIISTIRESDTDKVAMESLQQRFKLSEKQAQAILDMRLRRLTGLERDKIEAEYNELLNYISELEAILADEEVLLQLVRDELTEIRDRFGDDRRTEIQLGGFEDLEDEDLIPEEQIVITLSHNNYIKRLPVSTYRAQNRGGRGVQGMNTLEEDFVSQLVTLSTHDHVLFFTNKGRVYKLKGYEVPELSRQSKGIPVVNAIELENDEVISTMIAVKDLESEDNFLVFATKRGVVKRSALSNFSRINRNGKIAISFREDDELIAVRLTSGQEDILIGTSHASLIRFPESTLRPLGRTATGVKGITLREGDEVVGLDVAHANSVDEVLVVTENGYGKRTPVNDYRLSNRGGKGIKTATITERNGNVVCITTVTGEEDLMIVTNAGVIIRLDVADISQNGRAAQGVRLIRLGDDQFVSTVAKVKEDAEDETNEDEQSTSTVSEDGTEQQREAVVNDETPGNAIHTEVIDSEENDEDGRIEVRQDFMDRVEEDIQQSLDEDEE
# Sequence of S. aureus DNA gyrase (P0A0K8 whole entry): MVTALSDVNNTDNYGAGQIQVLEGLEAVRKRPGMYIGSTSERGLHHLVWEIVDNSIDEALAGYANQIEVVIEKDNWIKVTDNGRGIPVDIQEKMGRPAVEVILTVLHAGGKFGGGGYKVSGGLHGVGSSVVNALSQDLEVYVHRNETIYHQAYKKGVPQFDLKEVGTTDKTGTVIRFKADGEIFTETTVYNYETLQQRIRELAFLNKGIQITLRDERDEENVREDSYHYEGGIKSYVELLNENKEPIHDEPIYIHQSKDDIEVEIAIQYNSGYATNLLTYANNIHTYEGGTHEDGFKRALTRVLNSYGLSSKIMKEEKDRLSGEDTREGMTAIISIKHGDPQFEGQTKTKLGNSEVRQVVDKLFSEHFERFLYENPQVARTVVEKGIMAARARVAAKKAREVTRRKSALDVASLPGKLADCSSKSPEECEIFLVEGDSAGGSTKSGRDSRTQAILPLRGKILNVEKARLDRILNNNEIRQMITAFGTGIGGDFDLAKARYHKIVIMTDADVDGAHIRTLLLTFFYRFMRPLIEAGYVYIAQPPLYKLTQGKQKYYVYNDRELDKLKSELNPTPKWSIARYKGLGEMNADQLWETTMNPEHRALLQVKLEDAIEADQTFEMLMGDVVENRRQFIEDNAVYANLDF
compound,measurement,setting,value
"CCNC(=O)Nc1nc2cc(-c3cnc(C(C)(C)O)nc3)cc([C@H]3CCCO3)c2[nH]1 [Compound 13, methanesulfonic acid salt of 1-ethyl-3-[5-[2-(1-hydroxy-1-methyl-ethyl)pyrimidin-5-yl]-7-[(2R)-tetrahydrofuran-2-yl]-1H-benzimidazol-2-yl]urea]",MIC90,[1],> 16 µg/mL
same,MIC,"[2]; ATCC 25618 / H37Rv, M. tuberculosis H37Rv ATCC 25618",0.37 µg/mL
same,MIC,"[2]; ATCC 35801 / ERDMAN, M. tuberculosis Erdman ATCC 35801",0.25 µg/mL
same,bacterial growth compared to early control,[3]; [9],held the bacterial growth of SA 29213 to at least the point of stasis
same,log reduction in burdens compared to time-matched control,[3]; [9],~1.5 log
same,decrease of bacterial burden versus early control,[3]; [10],~0.4 logs
same,log reduction in burdens compared to time-matched control,[3]; [10],~1.7 log
same,decrease of bacterial burden versus early control,[3]; [11],~0.5 logs
same,log reduction in burdens compared to time-matched control,[3]; [11],1.8 log
same,decrease in bacterial density compared to early control,"[3]; 24 hours, second dose at 12 hours, 60 and 100 mg/kg",approximately 1 log
same,reduction of bacterial density compared to late control,"[3]; 24 hours, 10 mg/kg treatment group",~1.1 log
same,cfu levels greater than the early control,"[3]; 24 hours, 30 mg/kg (so in the source), did not appear effective",0.3 logs
same,reduction of bacterial density compared to late control,"[3]; 24 hours, 60 mg/kg",2.85 logs
same,reduction of bacterial density compared to late control,"[3]; 24 hours, 100 mg/kg",~3 logs
same,Median Thigh Burden (Log cfu/mL),"[3]; Table 9: 10 mg/kg oral gavage, single treatment (QD), 8 Hours",5.15 Log cfu/mL
same,Median Thigh Burden (Log cfu/mL),"[3]; Table 9: 10 mg/kg oral, 2 doses 12 hours apart (q12 h), 24 Hours",6.02 Log cfu/mL
same,Log Difference vs. Early Control,[3]; [12],−0.15
same,Log Difference vs. Late Control (8-hour),[3]; [12],−1.49
same,Log Difference vs. Early Control,[3]; [13],0.72
same,Log Difference vs. Late Control (24-hour),[3]; [13],−1.14
same,Log Difference vs. Early Control,[3]; [14],−0.35
same,Log Difference vs. Late Control (8-hour),[3]; [14],−1.69
same,Median Thigh Burden (Log cfu/mL),[3]; [14],4.95 Log cfu/mL
same,Log Difference vs. Early Control,[3]; [15],−0.99
same,Log Difference vs. Late Control (24-hour),[3]; [15],−2.85
same,Median Thigh Burden (Log cfu/mL),[3]; [15],4.31 Log cfu/mL
same,Log Difference vs. Early Control,[3]; [16],−0.48
same,Log Difference vs. Late Control (8-hour),[3]; [16],−1.82
same,Median Thigh Burden (Log cfu/mL),[3]; [16],4.82 Log cfu/mL
same,Log Difference vs. Early Control,[3]; [17],−1.13
same,Log Difference vs. Late Control (24-hour),[3]; [17],−2.99
same,Median Thigh Burden (Log cfu/mL),[3]; [17],4.17 Log cfu/mL
"CCNC(=O)Nc1nc2cc(-c3cnc(C(C)(C)O)nc3)c(F)c([C@H]3CCCO3)c2[nH]1 [Compound 23A, methanesulfonic acid salt of 1-ethyl-3-[6-fluoro-5-[2-(1-hydroxy-1-methyl-ethyl)pyrimidin-5-yl]-7-[(2R)-tetrahydrofuran-2-yl]-1H-benzimidazol-2-yl]urea]",MIC90,[1],16 µg/mL
same,MIC Range,[1],1 to 16 µg/mL
same,MIC,[4]; M. kansasii 303,0.03 µg/mL
same,MIC,[4]; M. kansasii 379,< 0.015 µg/mL
same,MIC,[5]; M. abscessus BB1,2 µg/mL
same,MIC,[5]; M. abscessus BB2,1 µg/mL
same,MIC,[5]; M. abscessus BB3,0.5 µg/mL
same,MIC,[5]; M. abscessus BB4,2 µg/mL
same,MIC,[5]; M. abscessus BB5,0.5 µg/mL
same,MIC,[5]; M. abscessus BB6,0.5 µg/mL
same,MIC,[5]; M. abscessus BB8,0.5 µg/mL
same,MIC,[5]; M. abscessus LT 949,1 µg/mL
same,MIC,[5]; M. abscessus MC 5812,1 µg/mL
same,MIC,[5]; M. abscessus MC 5901,1 µg/mL
same,MIC,"[5]; M. abscessus MC 5908 (second listing, r109)",1 µg/mL
same,MIC,[5]; M. abscessus MC 5922,0.25 µg/mL
same,MIC,[5]; M. abscessus MC 5931,0.5 µg/mL
same,MIC,[5]; M. abscessus MC 5960,0.5 µg/mL
same,MIC,[5]; M. abscessus MC 6005,1 µg/mL
same,MIC,[5]; M. abscessus MC 6025,0.75 µg/mL
same,MIC,[5]; M. abscessus MC 6111,0.5 µg/mL
same,MIC,[5]; M. abscessus MC 6136,0.5 µg/mL
same,MIC,[5]; M. abscessus MC 6142,0.5 µg/mL
same,MIC,[5]; M. abscessus MC 6153,1 µg/mL
same,bacterial growth compared to early control,[3]; [9],held the bacterial growth of SA 29213 to at least the point of stasis
same,log reduction in burdens compared to time-matched control,[3]; [9],~1.3 log
same,log reduction in burdens compared to time-matched control,"[3]; 8 hours after the first dose, 30 and 60 mg/kg oral",~2 log
same,decrease of bacterial burden compared to early control,"[3]; 8 hours after the first dose, 60 and 100 mg/kg (so in the source)",0.5-0.6 logs
same,log reduction compared to early control,"[3]; 24 hours, second dose at 12 hours, 10 mg/kg",approximately 0.8 log
same,log reductions compared to early control,"[3]; 24 hours, second dose at 12 hours, 30 and 60 mg/kg",1.1-1.2 log
same,decrease in bacterial density compared to late control,"[3]; 24 hours, second dose at 12 hours, all treatment groups (10, 30, 60 mg/kg)",2.4-2.8 logs
same,Median Thigh Burden (Log cfu/mL),"[3]; Table 8: 10 mg/kg oral gavage, single treatment (QD), 8 Hours",5.42 Log cfu/mL
same,Median Thigh Burden (Log cfu/mL),"[3]; Table 8: 10 mg/kg oral, 2 doses 12 hours apart (q12 h), 24 Hours",4.59 Log cfu/mL
same,Log Difference vs. Early Control,[3]; [18],0.05
same,Log Reduction vs. Late Control (8-hour),[3]; [18],−1.36
same,Log Difference vs. Early Control,[3]; [19],−0.78
same,Log Difference vs. Late Control (24-hour),[3]; [19],−2.40
same,Log Difference vs. Early Control,[3]; [20],−0.62
same,Log Reduction vs. Late Control (8-hour),[3]; [20],−2.02
same,Median Thigh Burden (Log cfu/mL),[3]; [20],4.75 Log cfu/mL
same,Log Difference vs. Early Control,[3]; [21],−1.06
same,Log Difference vs. Late Control (24-hour),[3]; [21],−2.68
same,Median Thigh Burden (Log cfu/mL),[3]; [21],4.31 Log cfu/mL
same,Log Difference vs. Early Control,[3]; [22],−0.57
same,Log Reduction vs. Late Control (8-hour),[3]; [22],−1.97
same,Median Thigh Burden (Log cfu/mL),[3]; [22],4.80 Log cfu/mL
same,Log Difference vs. Early Control,[3]; [23],−1.18
same,Log Difference vs. Late Control (24-hour),[3]; [23],−2.80
same,Median Thigh Burden (Log cfu/mL),[3]; [23],4.19 Log cfu/mL
"CCNC(=O)Nc1nc2cc(-c3cnc(C(C)(C)OP(=O)([O-])[O-])nc3)c(F)c([C@H]3CCCO3)c2[nH]1.[Na+].[Na+] [Compound W, disodium (R)-2-(5-(2-(3-ethylureido)-6-fluoro-7-(tetrahydrofuran-2-yl)-1H-benzo[d]imidazol-5-yl)pyrimidin-2-yl)propan-2-yl phosphate]",IC50,[6],150 nM
same,Ki,[6],30 nM
same,conversion of Compound W to Compound 23,[7],rapidly converts to Compound 23
same,IC50,[8],54 nM
